Data set [1] concerns ALOMY. The data set is described as follows: Post-emergence herbicidal effect, greenhouse pot test. Type of data set: in vivo, Alopecurus myosuroides. As to conditions: Alopecurus myosuroides, 504 h, visual rating about 3 weeks after treatment, read-out: Post-emergence effect against ALOMY. A digest of the protocol: (§1)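 Weeds sown in sandy loam, greenhouse-grown 2–3 weeks, then sprayed at one-leaf stage with WP or EC formulations in water plus 0.5% additive at 600 l/ha. Rates 20 to 320 g/ha. Visual rating after about 3 weeks versus untreated controls (100% = plants dead, 0% = like control).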

Data set [2] deals with POLCO. The data set is described as follows: Pre-emergence herbicidal effect, greenhouse pot test. As to conditions: Fallopia convolvulus, 504 h, 320 g/ha, scored visually after about 3 weeks vs untreated controls, read-out: Pre-emergence effect at 320 g/ha against POLCO in %. Type of data set: in vivo, Fallopia convolvulus. The source says: (§2) Seeds of monocotyledonous and dicotyledonous weed plants and crop plants are placed in plastic or organic planting pots and covered with soil. The compounds of the invention, formulated in the form of wettable powders (WP) or as emulsion concentrates (EC), are then applied to the surface of the covering soil as aqueous suspension or emulsion with addition of 0.5% additive at a water application rate equivalent to 600 l/ha. After the treatment, the pots are placed in a greenhouse and kept under good growth conditions for the trial plants. After about 3 weeks, the effect of the preparations is scored visually in comparison with untreated controls as percentages. For example, 100% activity=the plants have died, 0% activity=like control plants.
(§3) Tables 1a to 19c below show the effects/crop compatibilities of selected compounds of the general formula (I) on various harmful plants at an application rate corresponding to 20 to 320 g/ha, which were obtained by the trial procedure specified above.
(§4) • ALOMY: Alopecurus myosuroides SETVI: Setaria viridis • AVEFA: Avena fatua POLCO: Fallopia convolvulus • AMARE: Amaranthus retroflexus ECHCG: Echinochloa crus-galli • LOLRJ: Lolium rigidum STEME: Stellaria media • VERPE: Veronica persica MATIN: Tripleurospermum inodorum • DIGSA: Digitaria sanguinalis ABUTH: Abutylon threophrasti • TRZAS: Triticum aestivum VIOTR: Viola tricolor • BRSNW: Brassica napus ZEAMX: Zea mays • PHBPU: Ipomoea purpurea GLXMA: Glycine max • ORYSA: Oryza sativa HORMU: Hordeum murinum

Data set [3] relates to TRZAS. The data set is described as follows: Pre-emergence herbicidal effect and crop plant compatibility, greenhouse pot test. Format: in vivo, Triticum aestivum. The conditions noted are these: 80 g/ha, scored visually after about 3 weeks vs untreated controls.
Source text: as §2, §3, §4

Data set [4] has as its system SETVI. The data set is described as follows: Post-emergence herbicidal effect, greenhouse pot test. The conditions noted are these: Setaria viridis, 504 h, read-out: Post-emergence effect against SETVI in %. Format: in vivo, Setaria viridis. A digest of the protocol:
as §1

Data set [5] concerns AMARE. The data set is described as follows: Pre-emergence herbicidal effect, greenhouse pot test. The conditions noted are these: scored visually after about 3 weeks vs untreated controls. Type of data set: in vivo, Amaranthus retroflexus.
Source text: as §2, §3, §4

Data set [6] relates to MATIN. The description is as above. Format: in vivo, Tripleurospermum inodorum. As to conditions: scored visually after about 3 weeks vs untreated controls.
Source text: as §2, §3, §4

In data set [7] the test system is PHBPU. Described as above. Type of data set: in vivo, Ipomoea purpurea. The conditions noted are these: 320 g/ha, scored visually after about 3 weeks vs untreated controls.
Source text: as §2, §3, §4

Data set [8] concerns MATIN. The data set is described as follows: Post-emergence herbicidal effect, greenhouse pot test. Type of data set: in vivo, Tripleurospermum inodorum. As to conditions: Tripleurospermum inodorum, 504 h, read-out: Post-emergence effect against MATIN in %. A digest of the protocol: as §1
Data set [9] concerns ECHCG. Described as above. Format: in vivo, Echinochloa crus-galli. The conditions noted are these: Echinochloa crus-galli, 504 h, read-out: Post-emergence effect against ECHCG in %. A digest of the protocol: as §1
The subject of data set [10] is ALOMY. The data set is described as follows: Pre-emergence herbicidal effect, greenhouse pot test. Format: in vivo, Alopecurus myosuroides. The conditions noted are these: 320 g/ha, scored visually after about 3 weeks vs untreated controls.
Source text: as §2, §3, §4

Data set [11] relates to PHBPU. The data set is described as follows: Post-emergence herbicidal effect, greenhouse pot test. Type of data set: in vivo, Ipomoea purpurea. The essentials: as §1
In data set [12] the test system is GLXMA. The data set is described as follows: Pre-emergence herbicidal effect and crop plant compatibility, greenhouse pot test. Format: in vivo, Glycine max. The conditions noted are these: 80 g/ha, scored visually after about 3 weeks vs untreated controls.
Source text: as §2, §3, §4

Data set [13] deals with ECHCG. The data set is described as follows: Pre-emergence herbicidal effect, greenhouse pot test. Type of data set: in vivo, Echinochloa crus-galli. As to conditions: Echinochloa crus-galli, 504 h, 320 g/ha, scored visually after about 3 weeks vs untreated controls, read-out: Pre-emergence effect at 320 g/ha against ECHCG in %.
Source text: as §2, §3, §4

For data set [14], the system named is AVEFA. The data set is described as follows: Post-emergence herbicidal effect, greenhouse pot test. Format: in vivo, Avena fatua. As to conditions: 320 g/ha, visual rating about 3 weeks after treatment. The essentials:
as §1

Data set [15] has as its system VIOTR. Described as above. Format: in vivo, Viola tricolor. The conditions noted are these: Viola tricolor, 504 h, 320 g/ha, read-out: Post-emergence effect against VIOTR in %. The essentials:
as §1

In data set [16] the test system is POLCO. The data set is described as above. Format: in vivo, Fallopia convolvulus. The conditions noted are these: 320 g/ha. The essentials: as §1
In data set [17] the test system is TRZAS. The data set is described as follows: Post-emergence herbicidal effect and crop plant compatibility, greenhouse pot test. Type of data set: in vivo, Triticum aestivum. A digest of the protocol: (§5)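 Greenhouse pot test: weeds and crops sown in sandy loam, sprayed post-emergence at one-leaf stage (2–3 weeks after sowing) with WP or EC formulations plus 0.5% additive at 600 l/ha water, rates 20–320 g/ha. Visual rating about 3 weeks later versus untreated controls (100% = dead, 0% = as control).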

Data set [18] has as its system ZEAMX. Described as above. As to conditions: one-leaf stage, rated visually after about 3 weeks vs untreated controls. Type of data set: in vivo, Zea mays. A digest of the protocol:
as §5

The test system of data set [19] is GLXMA. Described as above. Type of data set: in vivo, Glycine max. As to conditions: 20 g/ha, visual rating about 3 weeks after treatment, crop plant.
Source text: as §4
Seeds of monocotyledonous and dicotyledonous weeds and crop plants are placed in sandy loam in plastic or organic planting pots, covered with soil and cultivated in a greenhouse under controlled growth conditions. 2 to 3 weeks after sowing, the trial plants are treated at the one-leaf stage. The compounds of the invention, formulated in the form of wettable powders (WP) or as emulsion concentrates (EC), are then sprayed onto the green parts of the plants as aqueous suspension or emulsion with addition of 0.5% additive at a water application rate of 600 l/ha (converted). After the test plants have been kept in the greenhouse under optimum growth conditions for about 3 weeks, the activity of the preparations is rated visually in comparison to untreated controls. For example, 100% activity=the plants have died, 0% activity=like control plants.
Tables 20a to 38c below show the effects/crop compatibilities of selected compounds of the general formula (I) on various harmful plants at an application rate corresponding to 20 to 320 g/ha, which were obtained by the trial procedure specified above.

For data set [20], the system named is VERPE. The data set is described as follows: Post-emergence herbicidal effect, greenhouse pot test. Type of data set: in vivo, Veronica persica. The conditions noted are these: 320 g/ha. The essentials: as §1

The text below walks through data of US20240391862A1, “(1,4,5-TRISUBSTITUTED-1H-PYRAZOL-3-YL)OXY-2-ALKOXY ALKYL ACIDS AND THEIR DERIVATIVES, THEIR SALTS AND THEIR USE AS HERBICIDAL AGENTS” (Bayer AKtiengesellschaft, priority 2021, published 2024).

With `COC(=O)C(OC)Oc1nn(-c2ncccc2F)c(-c2ccccc2)c1Br` (stereo not shown) [Example I-06], the pest or weed control at 80 g/ha in [1] (80 g/ha) was 90%; in [4] (80 g/ha) it was 80%; in data set [8] (80 g/ha), 80%; in [9] (80 g/ha), 80%; in [11] (Ipomoea purpurea, 504 h, 80 g/ha, read-out: Post-emergence effect against PHBPU in %) it was 80%. The pest or weed control at 320 g/ha turned out to be 90% in [1] (320 g/ha); 80% in data set [2]; 80% in data set [4] (320 g/ha); 100% in data set [5] (Amaranthus retroflexus, 504 h, 320 g/ha, read-out: Pre-emergence effect at 320 g/ha against AMARE in %); 90% in [6] (Tripleurospermum inodorum, 504 h, 320 g/ha, read-out: Pre-emergence effect at 320 g/ha against MATIN in %); 80% in data set [8] (320 g/ha). The pest or weed control at 320 g/ha in data set [9] (320 g/ha) was 80%; in data set [11] (Ipomoea purpurea, 504 h, 320 g/ha, read-out: Post-emergence effect against PHBPU in %) it was 80%; in data set [13], 100%; in [14] (Avena fatua, 504 h, read-out: Post-emergence effect against AVEFA), 80%; in [15] it was 80%. The “Pre-emergence effect at 80 g/ha against TRZAS in %” value in data set [3] was 10%. In addition, the “Pre-emergence effect at 80 g/ha against AMARE in %” value in data set [5] (80 g/ha) came to 90%. Besides, in [6] (80 g/ha), the “Pre-emergence effect at 80 g/ha against MATIN in %” value stood at 80%. For the same compound, the “Pre-emergence effect at 320 g/ha against PHBPU in %” value in data set [7] is listed as 90%. Further, the “Pre-emergence effect at 320 g/ha against ALOMY in %” value in [10] is reported as 90%. The “Pre-emergence effect at 80 g/ha against GLXMA in %” value in data set [12] was found to be 10%.
On to `COC(=O)C(OC)Oc1nn(-c2ccccc2F)c(-c2ccc(F)nc2)c1C(F)(F)C(F)(F)F` (stereo not shown) [Example I-60], for which, in [16], the “Post-emergence effect against POLCO in %” value worked out at 90%. For the same compound, the “Post-emergence effect at 20 g/ha against TRZAS in %” value in [17] (20 g/ha, one-leaf stage, rated visually after about 3 weeks vs untreated controls) is given as 0%. Moreover, the “Post-emergence effect against TRZAS” value in [17] (80 g/ha, visual rating about 3 weeks after treatment, crop plant) is 0%. Besides, the “Post-emergence effect against PHBPU in %” value in data set [11] (320 g/ha) amounted to 90%. The “Post-emergence effect at 20 g/ha against ZEAMX in %” value in [18] (20 g/ha) is 0%. The “Post-emergence effect at 80 g/ha against ZEAMX in %” value in [18] (80 g/ha) was 0%. The “Post-emergence effect against AVEFA” value in data set [14] is 80%. Moreover, the “Post-emergence effect against GLXMA” value in data set [19] is 10%. In addition, the “Post-emergence effect against VERPE in %” value in data set [20] came out at 80%.
